Reference: publication PMC10279527, “Structural basis of metabolite transport by the chloroplast outer envelope channel OEP21” (Nature Structural & Molecular Biology, 2023)
Values joined by “and” are separate entries in the source; they are usually repeats but may differ in a detail not shown here. Identical values can stand only once. Like-named read-outs stand apart in the source and are kept apart here.

How the values were obtained:
[1] = biological target: T1, OEP21 variants (single point mutations, ΔL5) (Pisum sativum, UniProt Q9SM57, R142A); experiment: Fluorescence polarization binding of MANT-ATP to OEP21 variants; parameters: species or system garden pea; conditions: OEP21 variant R142A; for Kd: unit inferred;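 for all read-outs here: KD obtained by fitting fluorescence polarization data to a one-site binding model, each experiment run in triplicate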
T1 construct: made in house; host or cells: Escherichia coli BL21(DE3) (described for OEP21)
T1 sequence (Q9SM57 whole entry L5del/R142A): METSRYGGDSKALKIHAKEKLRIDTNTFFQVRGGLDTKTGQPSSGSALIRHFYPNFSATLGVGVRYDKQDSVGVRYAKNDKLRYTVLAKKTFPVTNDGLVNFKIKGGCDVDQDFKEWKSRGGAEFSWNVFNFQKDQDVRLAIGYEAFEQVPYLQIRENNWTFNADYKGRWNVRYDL

OEP21ΔL5 = biological target: T2, OEP21ΔL5 (Pisum sativum, UniProt Q9SM57, DEL70-80); experiment: NMR titrations of OEP21ΔL5 with metabolites; type: binding, garden pea; conditions: for Kd: KDs dLoop + GAP, dLoop (OEP21ΔL5), unit inferred
T2 construct: made in house; host or cells: Escherichia coli BL21(DE3) (described for OEP21)
T2 sequence (Q9SM57 other isoform, or with tags, fused parts or gaps DEL70-80): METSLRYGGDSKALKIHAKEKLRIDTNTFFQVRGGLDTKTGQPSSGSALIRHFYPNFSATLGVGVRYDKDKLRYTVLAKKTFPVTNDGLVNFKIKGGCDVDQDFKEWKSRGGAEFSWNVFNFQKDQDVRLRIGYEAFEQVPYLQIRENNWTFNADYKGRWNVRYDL

OEP21 wt = biological target: T3, OEP21 wt (Pisum sativum, UniProt Q9SM57); experiment: SEC metabolite translocation assay with OEP21 WT proteoliposomes;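 for all read-outs here: control is liposomes reconstituted without protein, prepared alongside. Molecule content inside liposomes measured after Triton X-100 disruption. PD10 SEC runs done with or without ATP and/or MgCl2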; type: biochemical, garden pea; conditions: for Relative content (% of mean Control): Fig. 4f, WT proteoliposomes, molecules of increasing molecular weight
T3 construct: made in house
T3 sequence (Q9SM57 whole entry): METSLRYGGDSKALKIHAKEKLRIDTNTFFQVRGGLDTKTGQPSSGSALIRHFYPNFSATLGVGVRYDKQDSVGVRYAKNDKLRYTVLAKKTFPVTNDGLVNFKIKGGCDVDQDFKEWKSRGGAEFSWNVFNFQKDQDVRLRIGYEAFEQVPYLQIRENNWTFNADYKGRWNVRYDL

OmpX = OmpX (Escherichia coli, UniProt P0A917); experiment: 2D NMR control with OmpX in LDAO micelles; parameters: species or system bacterial; conditions: up to 5 mM GAP; control for nonspecific binding
Chain of OmpX (P0A917 24-171): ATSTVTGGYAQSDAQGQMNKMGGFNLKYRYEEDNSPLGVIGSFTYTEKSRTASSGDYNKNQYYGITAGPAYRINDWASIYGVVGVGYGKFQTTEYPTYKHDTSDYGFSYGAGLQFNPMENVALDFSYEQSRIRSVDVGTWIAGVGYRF
Protocol: (a) (left) 2D-[^15N,^1H]-TROSY NMR spectra of 400 µM ^2H,^15N-labeled OmpX in LDAO micelles in 20 mM sodium phosphate, pH6.0, 50 mM NaCl, 0.5 mM EDTA and the indicated concentrations of D-GAP at 30 °C and 1.2 GHz magnetic field. (right) 2D-projections along the ^1H dimension of the 2D-spectra shown on (left). […] (right) Relative NMR peak intensities derived from the data in (left) and (middle). Buffer: 10 mM Na-phosphate pH7.0, 20 mM NaCl, 7% (v/v) D2O. […] (right) 150 mM MgCl2 was titrated into 15 mM potassium phosphate (Pi). Buffer conditions for all experiments were: 10 mM HEPES pH7.0, 20 mM NaCl.

OEP21 = OEP21 (Pisum sativum, UniProt Q9SM57); experiment: Trypsin cleavage of recombinant OEP21 in liposomes; parameters: made in house; species or system garden pea; conditions: 10 µM OEP21 in liposomes; 5 mM metabolite
Chain of OEP21 (Q9SM57 whole entry): as the sequence (Q9SM57 whole entry) above
Protocol: Sample aliquots were quenched by addition of 1 mM PMSF at the indicated time points and were analyzed by SDS–PAGE.

“2′-(or-3′)-O-(N-methylanthraniloyl) adenosine 5′-triphosphate [Mant-ATP]” was tested, and the Kd ([1]; individual determinations, read-out: KD1-KD3) was 0.27 µM and 0.331 µM and 0.267 µM, the “rel KD1-KD3” value ([1]; relative to mean KD of wt) was 1.484 and 1.819 and 1.467 and the Kd ([1]; read-out: mean KD) was 0.289 µM.

In the case of `O=C[C@H](O)COP(=O)(O)O` [GAP, D-glyceraldehyde-3-phosphate], the Kd (OEP21ΔL5; Mean, mean) is reported as 730 µM, the Kd (OEP21ΔL5; individual KDs) is reported as 702 µM and 649 µM and 747 µM and 728 µM and 616 µM and 657 µM and 634 µM and 730 µM and 906 µM and 897 µM and 764 µM and the “effect of L5 on binding affinity (in words)” value (OEP21ΔL5; NMR, Fig. 3h, OEP21 versus OEP21ΔL5) is reported as “approximately a fourfold increase in binding affinity”. The “Relative GAP content (% of mean Control)” value (OEP21 wt; ED Fig. 10a, WT 0.05uM, Mean) was 95.6446 % of mean Control, the “Relative GAP content (% of mean Control)” value (OEP21 wt; ED Fig. 10a, WT 0.5uM, Mean) was 62.4352 % of mean Control and the “Relative GAP content (% of mean Control)” value (OEP21 wt; ED Fig. 10a, WT 5uM, Mean) was 38.701 % of mean Control. For the same compound, the “Relative GAP content (% of mean Control)” value (OEP21 wt; ED Fig. 10b, +ATP (2 mM per legend), OEP21 0.05uM, Mean) was 91.3817 % of mean Control, the “Relative GAP content (% of mean Control)” value (OEP21 wt; ED Fig. 10b, +ATP (2 mM per legend), OEP21 0.5uM, Mean) was 64.3295 % of mean Control and the “Relative GAP content (% of mean Control)” value (OEP21 wt; ED Fig. 10b, +ATP (2 mM per legend), OEP21 5uM, Mean) was 54.5372 % of mean Control. The “Relative GAP content (% of mean Control)” value (OEP21 wt; ED Fig. 10c, WT, 0.05M NaCl, Mean) was 38.1976 % of mean Control, the “Relative GAP content (% of mean Control)” value (OEP21 wt; ED Fig. 10c, WT, 1M NaCl, Mean) was 59.8192 % of mean Control and the “Relative GAP content (% of mean Control)” value (OEP21 wt; ED Fig. 10c, WT, […] NaCl, Mean) was 46.186 % of mean Control. For the same compound, the “Relative content (% of mean Control)” value (OEP21 wt; Mean) was 48.3557 % of mean Control, the “Relative content (% of mean Control)” value (OEP21 wt; single replicates) was 46.601 % of mean Control and 48.0754 % of mean Control and 50.3906 % of mean Control and the “Relative GAP content (% of mean Control)” value (OEP21 wt; Fig. 4d, WT, 5mM ATP, Mean) was 40.9262 % of mean Control. For the same compound, the “Relative GAP content (% of mean Control)” value (OEP21 wt; Fig. 4d, WT, 10mM MgCl2+5mM ATP, Mean) was 54.2808 % of mean Control, the “Relative GAP content (% of mean Control)” value (OEP21 wt; Fig. 4d, WT, 10mM MgCl2, Mean) was 63.8331 % of mean Control and the “passage through the OEP21 channel (in words)” value (OEP21 wt; proteoliposomes, SEC, deadtime ~4 min) was “passed through the channel”. The “effect on 2D-NMR spectra of OmpX (in words)” value (OmpX) was “did not observe any effect” and the “effect on trypsin digestion of L5 (in words)” value (OEP21) was “slightly protected L5 from proteolytic digestion”.
